Measured values reported in US20110172230A1, “UREA COMPOUND OR SALT THEREOF” (priority 2006, published 2011).
Counter-ions that a name gives are not always drawn.

Target: T1, FAAH (Rattus norvegicus, UniProt P97612)
T1 construct: the rat brain homogenate was diluted so that its protein concentration could be 60 μg/ml, thereby preparing an enzyme solution; from tissue; host or cells: rat cerebrum (SD-line male rat, 10 weeks) homogenate, 15000 x g pellet
T1 sequence (P97612 1-579): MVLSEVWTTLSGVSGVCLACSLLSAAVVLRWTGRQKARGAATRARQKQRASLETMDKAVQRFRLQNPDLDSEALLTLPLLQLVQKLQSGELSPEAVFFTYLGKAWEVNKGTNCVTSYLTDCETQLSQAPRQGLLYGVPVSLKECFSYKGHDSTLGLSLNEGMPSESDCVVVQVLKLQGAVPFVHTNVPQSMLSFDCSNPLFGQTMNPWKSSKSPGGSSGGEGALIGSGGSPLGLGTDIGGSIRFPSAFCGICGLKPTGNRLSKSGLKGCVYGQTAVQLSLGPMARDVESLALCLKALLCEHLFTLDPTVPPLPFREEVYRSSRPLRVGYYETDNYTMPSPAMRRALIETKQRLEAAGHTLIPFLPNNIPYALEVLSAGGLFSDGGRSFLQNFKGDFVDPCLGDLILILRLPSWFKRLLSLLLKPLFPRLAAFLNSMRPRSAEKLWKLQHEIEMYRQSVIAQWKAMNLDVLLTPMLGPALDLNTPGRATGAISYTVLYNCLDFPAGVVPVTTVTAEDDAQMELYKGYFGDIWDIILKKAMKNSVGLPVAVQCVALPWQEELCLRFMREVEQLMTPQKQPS
Assay: Screening for an FAAH activity inhibiting substance using a rat brain homogenate (IC50)
Type: biochemical
Conditions: radiolabeled anandamide substrate, 1 hour
Description: Screening for an FAAH Activity Inhibiting Substance Using a Rat Brain Homogenate
(1) Preparation of a Rat Brain Homogenate
The head of a 10-week-old SD-line male rat (Japan SLC., Inc.) was cut off, and its cerebrum was taken out and weighed. Five times by volume its weight of an ice-cooled buffer (50 mM Tris-HCl (pH 7.4), 0.32 M sucrose) was added, and this was homogenized with a homogenizer in ice to give a uniform suspension. This was centrifuged (1500×g, 4° C., 15 minutes), and the supernatant was again centrifuged (15000×g, 4° C., 20 minutes) to obtain a precipitate. Further, using an ultrasonic wave generator (UR-20P, TOMY SEIKO CO., LTD.), this was ultrasonicated (power dial 4) for 5 seconds. The protein concentration of the resulting homogenate was measured according to a dye-coupling method (protein assay CBB solution, NACALAI TESQUE, INC.). Using a buffer (50 mM Tris-HCl (pH 8.0), 1 mM EDTA, 0.1 mg/ml BSA, 100 mM NaCl), the rat brain homogenate was diluted so that its protein concentration could be 60 μg/ml, thereby preparing an enzyme solution.
(2) Screening for an FAAH Activity Inhibiting Substance
A substrate solution was prepared, comprising 2 μCi/ml radiolabeled anandamide (Anandamide [ethanolamine 1-^3H] (American Radiolabeled Chemical)), 8 μM anandamide (Funakoshi), 50 mM Tris-HCl (pH 8.0), 1 mM EDTA, 0.1 mg/ml BSA and 100 mM NaCl. Test substance solutions were prepared, dissolved in DMSO to have a concentration from 1 nM to 100 μM. 50 μl of the substrate solution and 1 μl of the test substance solution were added to 50 μl of the enzyme solution, and left for 1 hour. As a control, DMSO was added in place of the test substance solution. To this, added was 200 μl of a 1:1 (ratio by volume) solution of chloroform/methanol, followed by vortexing. This was centrifuged (15000 rpm, 2 minutes), whereby the decomposed product ethanolamine (ethanolamine 1-^3H) was separated in the upper layer (water/methanol layer) and the unreacted radiolabeled anandamide (Anandamide [ethanolamine 1-^3H]) was in the lower layer (chloroform layer). 30 μl of the upper layer was transferred into a 96-well organic solvent-resistant white microplate (PicoPlate-96; Perkin Elmer, Inc.), 150 μl of Microscint-20 (Perkin Elmer, Inc.) was added thereto, and this was measured with a microplate scintillation counter (TopCount™; Beckman Coulter, Inc.). As compared with the control, the substance that gave a decreased value was selected as an FAAH activity-inhibiting substance.
(3) Measurement of the IC50 Value of the FAAH Activity Inhibiting Substance
The compound was dissolved in DMSO to have a varying concentration from 1 nM to 100 μM to prepare test substance solutions. According to the method mentioned above, the compound was analyzed for its influence on FAAH activity. As a control, DMSO was used. A measured value of a case where a buffer (50 mM Tris-HCl (pH 8.0), 1 mM EDTA, 0.1 mg/ml BSA, 100 mM NaCl) was reacted in place of the enzyme solution was subtracted from every measured value. Based on the measured value of the control, 100%, the IC50 value of the test substance was determined. Furthermore, Ex represents the Example No. as denoted below.

SMILES	IC50 [nM]
CN(CCC1CCCCC1)c1ccc(C(=O)N2CCN(C(=O)Nc3cccnc3)CC2)cc1 [Example 334]	42
O=C(Nc1cnccn1)N1CCN(C(=O)c2cccc(OCCC3CCCCC3)c2)CC1 [Example 210]	3.3
O=C(Nc1ncccn1)N1CCN(C(=O)c2cccc(OCCC3CCCCC3)c2)CC1 [Example 155]	25
COCC(=O)NC(=O)N1CCN(Cc2cccc(OCCC3CCCCC3)c2)CC1 [Example 439]	25
O=C(Nc1cnccn1)N1CCN(C(=O)c2ccnc(OCCC3CCCCC3)c2)CC1 [Example 38, 4-[2-(2-cyclohexylethoxy)isonicotinoyl]-N-pyrazin-2-ylpiperazine-1-carboxamide]	5
O=C(Nc1cccnc1)N1CCN(Cc2ccnc(OCCC3CCCCC3)c2)CC1 [Example 30, 4-{[2-(2-cyclohexylethoxy)pyridin-4-yl]methyl}-N-pyridin-3-ylpiperazine-1-carboxamide trihydrochloride]	30
